# Tests used:
# Androgen receptor = biological target: T1, Androgen receptor (Homo sapiens, UniProt P10275); experiment: Binding affinity for androgen receptor
# T1 sequence (P10275 whole entry): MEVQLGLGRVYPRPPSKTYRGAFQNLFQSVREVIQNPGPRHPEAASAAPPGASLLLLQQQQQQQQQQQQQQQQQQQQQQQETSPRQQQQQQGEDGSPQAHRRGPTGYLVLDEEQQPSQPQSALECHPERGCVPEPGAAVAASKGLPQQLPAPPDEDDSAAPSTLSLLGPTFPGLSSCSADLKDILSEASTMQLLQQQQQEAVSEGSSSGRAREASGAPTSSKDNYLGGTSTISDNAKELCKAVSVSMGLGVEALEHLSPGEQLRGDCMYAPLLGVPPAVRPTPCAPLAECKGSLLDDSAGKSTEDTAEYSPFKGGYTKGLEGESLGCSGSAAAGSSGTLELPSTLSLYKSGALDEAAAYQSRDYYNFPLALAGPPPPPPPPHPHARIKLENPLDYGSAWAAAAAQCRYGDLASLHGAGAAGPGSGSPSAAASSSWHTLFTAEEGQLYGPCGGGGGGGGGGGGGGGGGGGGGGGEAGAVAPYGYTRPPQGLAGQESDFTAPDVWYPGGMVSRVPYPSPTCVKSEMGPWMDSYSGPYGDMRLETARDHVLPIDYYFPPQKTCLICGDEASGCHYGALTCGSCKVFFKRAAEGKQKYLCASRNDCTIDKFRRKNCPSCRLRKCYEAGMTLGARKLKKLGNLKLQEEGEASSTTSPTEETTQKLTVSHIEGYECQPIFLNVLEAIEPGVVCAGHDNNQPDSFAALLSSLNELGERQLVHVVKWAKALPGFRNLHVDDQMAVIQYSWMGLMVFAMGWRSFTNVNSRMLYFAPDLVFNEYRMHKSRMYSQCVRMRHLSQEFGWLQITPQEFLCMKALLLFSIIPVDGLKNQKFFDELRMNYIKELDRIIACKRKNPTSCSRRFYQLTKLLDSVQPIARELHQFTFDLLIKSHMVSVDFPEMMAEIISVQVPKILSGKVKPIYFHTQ
# Glucocorticoid receptor [1] = biological target: T2, Glucocorticoid receptor (Homo sapiens, UniProt P04150); experiment: Transcriptional activation in CV-1 cells expressing glucocorticoid receptor; format: functional, cell-based
# T2 sequence (P04150 whole entry): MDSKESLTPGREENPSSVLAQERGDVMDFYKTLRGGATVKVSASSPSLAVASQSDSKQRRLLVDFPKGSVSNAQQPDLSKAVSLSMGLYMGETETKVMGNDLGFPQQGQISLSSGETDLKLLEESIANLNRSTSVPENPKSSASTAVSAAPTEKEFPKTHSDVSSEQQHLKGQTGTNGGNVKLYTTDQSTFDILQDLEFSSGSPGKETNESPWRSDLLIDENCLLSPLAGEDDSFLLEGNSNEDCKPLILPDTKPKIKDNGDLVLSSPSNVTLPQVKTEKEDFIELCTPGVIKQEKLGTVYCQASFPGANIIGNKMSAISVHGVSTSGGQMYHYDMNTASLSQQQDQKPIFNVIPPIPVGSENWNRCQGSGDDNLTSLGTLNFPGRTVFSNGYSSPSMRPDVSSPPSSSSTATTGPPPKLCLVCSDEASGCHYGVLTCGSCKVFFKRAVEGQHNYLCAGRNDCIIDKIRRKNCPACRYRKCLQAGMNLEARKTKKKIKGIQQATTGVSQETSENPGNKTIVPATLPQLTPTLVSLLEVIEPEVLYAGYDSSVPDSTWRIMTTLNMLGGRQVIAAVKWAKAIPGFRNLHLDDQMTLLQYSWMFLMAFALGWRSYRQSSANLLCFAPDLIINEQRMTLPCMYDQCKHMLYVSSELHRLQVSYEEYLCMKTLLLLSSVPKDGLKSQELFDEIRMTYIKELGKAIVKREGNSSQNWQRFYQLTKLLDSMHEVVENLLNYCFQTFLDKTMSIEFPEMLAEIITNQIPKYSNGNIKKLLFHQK
# Glucocorticoid receptor [2] = biological target: T2, Glucocorticoid receptor; experiment: Repression activity of GR ligand with interleukin-6 receptor in native cell assay using Dexamethasone was determined as maximal potency; format: functional
# Progesterone receptor = biological target: T3, Progesterone receptor (Homo sapiens, UniProt P06401); experiment: Binding affinity for progesterone receptor
# T3 sequence (P06401 whole entry): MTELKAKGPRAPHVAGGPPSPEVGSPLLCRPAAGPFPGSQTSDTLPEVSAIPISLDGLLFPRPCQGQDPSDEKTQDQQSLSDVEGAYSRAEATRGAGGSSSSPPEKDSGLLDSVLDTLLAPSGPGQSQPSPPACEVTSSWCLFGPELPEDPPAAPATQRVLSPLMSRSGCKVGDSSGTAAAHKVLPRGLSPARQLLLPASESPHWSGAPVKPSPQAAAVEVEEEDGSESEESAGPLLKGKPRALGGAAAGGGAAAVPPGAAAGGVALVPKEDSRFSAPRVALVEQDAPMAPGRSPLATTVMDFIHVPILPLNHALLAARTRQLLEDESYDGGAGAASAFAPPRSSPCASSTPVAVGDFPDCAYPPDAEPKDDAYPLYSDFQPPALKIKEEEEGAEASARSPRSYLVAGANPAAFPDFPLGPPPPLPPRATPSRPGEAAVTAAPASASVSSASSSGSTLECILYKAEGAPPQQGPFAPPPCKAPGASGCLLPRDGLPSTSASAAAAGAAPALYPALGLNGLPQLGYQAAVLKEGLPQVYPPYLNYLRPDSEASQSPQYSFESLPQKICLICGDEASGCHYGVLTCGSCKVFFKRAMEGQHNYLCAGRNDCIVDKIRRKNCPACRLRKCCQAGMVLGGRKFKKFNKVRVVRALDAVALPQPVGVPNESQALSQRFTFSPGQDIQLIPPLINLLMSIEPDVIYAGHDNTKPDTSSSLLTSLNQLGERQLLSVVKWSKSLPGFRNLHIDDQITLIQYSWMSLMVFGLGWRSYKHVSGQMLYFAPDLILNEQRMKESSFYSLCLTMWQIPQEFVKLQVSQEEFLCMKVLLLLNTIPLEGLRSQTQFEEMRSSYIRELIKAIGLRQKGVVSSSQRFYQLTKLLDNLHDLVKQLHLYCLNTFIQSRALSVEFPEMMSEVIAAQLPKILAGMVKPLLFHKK
smiles,measurement,setting,value
COc1cccc2c1-c1ccc3c(c1C(c1cccc(OCSC)c1)O2)C(C)=CC(C)(C)N3 (centres undefined),Ki,Androgen receptor,3120 nM
same,IC50,Glucocorticoid receptor [1],9 nM
same,IC50,Glucocorticoid receptor [2],16 nM
same,Ki,Progesterone receptor,> 5000 nM
